Measured values taken from patent US20090054376A1, “BENZOFURAN DERIVATIVES WITH THERAPEUTIC ACTIVITIES” (Pharmos Corporation, priority 2005, published 2009).
Read-outs that look alike come from different tables or passages of the source.

Assays:
Human CB1 Receptor = target: T1, Human CB1 Receptor (Homo sapiens, UniProt P21554); assay: [35S]GTPγS-binding assay, hCB1; type: biochemical; settings: NB = no binding
T1 construct: expressed in transfected cells; host or cells: HEK-293 cells (membranes)
T1 sequence (P21554 whole entry): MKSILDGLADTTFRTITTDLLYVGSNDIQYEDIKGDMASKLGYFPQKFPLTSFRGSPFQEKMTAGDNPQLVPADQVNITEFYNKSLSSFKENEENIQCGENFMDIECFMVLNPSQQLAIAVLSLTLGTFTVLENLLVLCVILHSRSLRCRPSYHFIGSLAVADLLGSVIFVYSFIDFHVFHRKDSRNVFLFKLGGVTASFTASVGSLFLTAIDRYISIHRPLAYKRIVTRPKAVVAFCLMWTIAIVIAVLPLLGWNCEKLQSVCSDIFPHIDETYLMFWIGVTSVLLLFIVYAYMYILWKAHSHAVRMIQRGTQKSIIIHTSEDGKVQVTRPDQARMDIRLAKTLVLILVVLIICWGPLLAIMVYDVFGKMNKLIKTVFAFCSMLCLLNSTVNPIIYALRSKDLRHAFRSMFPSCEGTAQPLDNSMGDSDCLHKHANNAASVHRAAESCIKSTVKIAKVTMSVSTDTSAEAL
Protocol: (§1) Functional activity of compounds of the invention toward the cannabinoid receptors was determined by stimulation of [^35S]-GTPγS binding using membranes from HEK-293 cells expressing the hCB1 receptor and membranes expressing the hCB2 receptor derived from either Sf9 (PerkinElmer) or from HEK-293 cells. Activities were compared to that of the known cannabinoid full agonist CP55940 (Alexis). The purpose of this experiment is to determine the potency of the compounds of the invention as agonists or antagonists toward each of the receptor tested.
(§2) [^35S]-GTPγS binding reactions were performed at 30° C. in 96-well plates containing 5-10 μg membrane protein suspended in 0.1 ml binding buffer [20 mM HEPES-NaOH, pH 7.4, 5 mM MgCl2, 100 mM NaCl, 0.2% (w/v) bovine serum albumin] supplemented with 50 μM GDP and 0.06 nM-10 μM of the compound being tested. Binding was initiated by the addition of [^35S]GTPγS (0.3 nM final concentration). Incubations were performed for 90 minutes and were terminated by filtration on GF/C filter plates (PerkinEimer). Filters were washed ten times with ice-cold wash buffer (20 mM HEPES-NaOH, pH 7.4, 10 mM sodium pyrophosphate). Non-specific binding was measured in the presence of 15 μM GTPγS.
(§3) Assays were performed in duplicates. Data was analyzed by plotting on the X axis the log concentration against percent of specific [^35S]GTPγS binding out of basal [^35S]GTPγS binding on the Y axis, non-linear regression is then performed using GraphPad Prism, version 3.0 (GraphPad, San Diego, Calif.) to calculate the EC50 and Emax of the compound. The EC50 value represents the concentration at which there is 50% [^35S]GTPγS binding and the Emax value the upper plateau of the curve.

Human CB2 Receptor = target: T2, Human CB2 Receptor (Homo sapiens, UniProt P34972); assay: [35S]GTPγS-binding assay, hCB2; type: biochemical; settings: GTPγS, Human CB2 Receptor; NB = no binding
T2 construct: host or cells: Sf9 or HEK-293 cells (membranes)
T2 sequence (P34972 whole entry): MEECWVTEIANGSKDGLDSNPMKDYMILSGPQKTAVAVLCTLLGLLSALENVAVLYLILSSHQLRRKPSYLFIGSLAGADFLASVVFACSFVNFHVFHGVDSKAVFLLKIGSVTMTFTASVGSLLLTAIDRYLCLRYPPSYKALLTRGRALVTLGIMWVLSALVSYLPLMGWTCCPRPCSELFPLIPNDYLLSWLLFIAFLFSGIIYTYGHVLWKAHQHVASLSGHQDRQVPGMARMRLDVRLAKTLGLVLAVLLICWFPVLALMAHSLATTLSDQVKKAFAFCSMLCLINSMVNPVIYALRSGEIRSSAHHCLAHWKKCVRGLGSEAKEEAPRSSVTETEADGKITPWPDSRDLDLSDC
Protocol: as §1, §2, §3

IL-1β = assay: Gene expression in LPS activated RAW 264.7 macrophages, IL-1β; type: cell-based, mouse; settings: RAW 264.7, 10 μM, LPS 1 μg/ml, RNA 3 hrs after activation, vs vehicle treated activated cells
Protocol: (§4) RAW 264.7 macrophages, a mouse cell line (ATCC # TIB 71), were grown in Dulbecco's modified Eagle's medium (DMEM) with 4 mM L-glutamine adjusted to contain 1.5 g/L sodium bicarbonate, 4.5 g/L glucose, and 10% heat inactivated fetal bovine serum. Cells were grown in tissue culture flasks and seeded at appropriate density into 6 wells tissue culture plates. Four million Raw cells in half a milliliter were stimulated with 1 μg/ml LPS E. coli 055:B5 (DIFCO Laboratories). The mouse macrophages were pre-treated for one hour with controls or 10 μM of test compounds, and later on activated with LPS. RNA samples were extracted from the cells 3 hrs after activation and gene expression levels were analyzed by real-time RT-PCR. In parallel, supernatants were collected and secretion of inflammatory mediators was analyzed using ELISA techniques according to the instructions of the kit manufacturer.
(§5) Total RNA is prepared using SV total RNA isolation system (Promega). The cells were homogenized in lysis buffer. The lysates were transferred to an RNA isolation column, treated with DNAse, washed and eluted according to kit instructions. RNA concentrations were determined using GeneQuant II (Pharmacia-Amersham). Complementary DNA (cDNA) was synthesized from total RNA using […] II reverse transcriptase (Life Technologies). 2 μg of total RNA were combined with an oligo (dT)15 primer, 0.5 mM dNTP mix, 8 units of reverse transcriptase and other reaction components up to a final volume of 20 μl, according to the kit instructions. The reaction mixture was incubated at 42° C. for 45 min and inactivated at 70° C. for 15 minutes. Quantitative real-time RT-PCR included 1 μl of the cDNA, 300 nM of the appropriate forward and reverse primers (according to the gene monitored) and 7.5 μl of the reaction mix containing buffer, nucleotides, Taq polymerase and SYBER green (SYBER Green master mix, Applied Biosystems), in a total reaction volume of 15 μl. Gene amplification was obtained using the GeneAmp 5700 sequence detection system (Applied Biosystems). Amplification included one stage of 10 minutes at 95° C. followed by 40 cycles of a 2-steps loop: 20 seconds at 95° C., and 1 minute at 60° C. During each annealing step, the amount of the amplified product was measured by the fluorescence of the double strand DNA binding dye, SYBER Green. The cycle of threshold (CT), representing the PCR cycle at which an increase in fluorescence above a baseline signal can be first detected, was determined for each product. A delay of one PCR cycle in the CT is translated into a two-fold decrease in starting template molecules and vice versa. The changes in the CT of the specific gene product were normalized to the changes in the CT of housekeeping cyclophilin or GAPDH as reference genes. Results were expressed as fold increase of gene expression in treated or untreated activated cells above the resting cells, after normalization to cyclophilin or GAPDH. Cells were also tested for viability to confirm that any effect on gene expression was indeed due to modulation of transcription of a specific target and not to cytoxicity.
(§6) Results were further expressed as percent inhibition of gene expression in compound treated activated cells over vehicle “treated” activated cells. Since the modulation of IL-10 and TNF-α gene expression by the compounds of the invention is relatively minor, it is not reported. […] Inhibition above 50% was considered significant.

iNOS = assay: Gene expression in LPS activated RAW 264.7 macrophages, iNOS; type: cell-based, mouse; settings: RAW 264.7, 10 μM, LPS 1 μg/ml, RNA 3 hrs after activation, vs vehicle treated activated cells
Protocol: as §4, §5, §6

MCP-1 = assay: Gene expression in LPS activated RAW 264.7 macrophages, MCP-1; type: cell-based, mouse; settings: RAW 264.7, 10 μM, LPS 1 μg/ml, RNA 3 hrs after activation, vs vehicle treated activated cells
Protocol: as §4, §5, §6

[1] = tested on: carrageenan induced inflammatory pain and paw edema; assay: Inflammatory pain and paw edema induced by carrageenan; type: in vivo, Male Sprague Dawley rats; settings: for inhibition in vivo at 10 mg/kg: Rattus norvegicus, ip
Outline: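 Male Sprague Dawley rats (~200 g) received 0.1 ml 2% λ-carrageenan subplantar in the right paw; compounds given i.p. at 3, 10 or 20 mg/kg (some p.o.) immediately after. Thermal (Hargreaves) latency, mechanical threshold, paw thickness and volume measured at 0 and 3 h; values are inter-paw differences ([…], ΔForce), volume as % of vehicle.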

[2] = tested on: TNBS induced inflammatory bowel disease; assay: TNBS induced inflammatory bowel disease; type: in vivo, Female Balb/C mice; settings: for transient loss in body weight: one day after TNBS instillation; for mortality: untreated 60%
Protocol: Female Balb/C mice (average body weight 20 g, Harlan, Israel) were lightly sedated and challenged rectally, by instillation with 70 μl of 2.5% TNBS (Sigma) dissolved in 50% ethanol, to induce intestinal inflammation and colitis. Animals were weighted before the beginning of the study and treatment was administered i.p. on a daily basis for six days at 20 mg/kg and volume dosage of 5 ml/kg. During the study period of up to 7 days, the following parameters were daily monitored and recorded: body weight, presence of blood in the stool and stool consistency. These findings are scored according to Table 6 [Murthy S.N. et al., Dig. Dis. Sci. 38:1722-34, 1993].
On the last day of the study, animals were euthanized. Abdomen was open and the colon was sectioned at the level of the caecum and the rectum. The colon was weighted and its length was measured. The whole column was excised, slited longitudinally, and examined under a magnifying lens. Any visible damage was recorded and scored for gross pathology according to Wong [Wong et al., J. Pharm. Exp. Ther. 274: 475-80, 1995]. Namely, a score of 0 indicates no damage, 1 indicates localized hyperemia and/or edema, 2 indicates at least two sites of hyperemia and/or edema, 3 indicates localized erosion, 4 indicates localized ulcer and 5 indicates either an erosion site or ulcer extending for more than 2 cm along the colon or at least two sites of erosion or ulcer. Finally, the entire colon was fixed in 4% formaldehyde for histopathological evaluation.
Each treatment group comprised at least seven animals. The following groups served as negative controls: naïve animals, sham animals that received 70 μl of 50% ethanol without TNBS, and TNBS challenged untreated and vehicle treated animals. A group of animals receiving 10 mg/kg sulfasalazine served as positive controls. Sulfasalazine is a standard anti-inflammatory drug used for the treatment of mild to moderate ulcerative colitis and Crohn's disease, and as adjunctive therapy in the treatment of severe ulcerative colitis. This drug is also used for the treatment of non-IBD related disorders, such as rheumatoid arthritis and ankylosing spondylitis. The recognized side effect of this medicament is its hepatotoxicity upon chronic treatment.

COX-2 = assay: Gene expression in LPS activated RAW 264.7 macrophages, COX-2; type: cell-based, mouse; settings: RAW 264.7, 10 μM, LPS 1 μg/ml, RNA 3 hrs after activation, vs vehicle treated activated cells
Protocol: as §4, §5, §6

[3] = tested on: visceral pain writhing responses; assay: Visceral pain, acetic acid induced writhing responses; type: in vivo, Male ICR mice; settings: single dose 2 mg/kg i.v., compared to untreated group
[4] = tested on: mechanical allodyna after chronic constriction of the sciatic nerve; assay: Neuropathic pain, chronic constriction of the sciatic nerve (CCI); type: in vivo, Male Sprague Dawley rats; settings: both 0.25 and 2 mg/kg i.v.
Protocol: The analgesic activity of compounds of the invention was assessed in a chronic constriction induced (CCI) model of neuropathic pain. […] The development of mechanical allodyna was monitored using a Dynamic Plantar Sesthesiomether as described in Example 18. This apparatus is an automated version of the classical von Frey filaments' test.
Pre-surgery baseline values were ascertained as the mean of 2 pre-surgery values. Once the baseline values are established, the animals were surgically prepared by constricting the right sciatic nerve with 4-0 chromic cat gut loose ligatures. On day 11 post-operation, the animals that have developed mechanical allodyna were arbitrarily allocated to the various treatment groups based on the pre-surgery values.
The design was randomized, performed in a masked fashion as to whether drug or vehicle is being given. Male Sprague Dawley rats (average body weight 240 g, Harlan, Israel), were allowed to acclimatize to the behavioral testing equipment prior to testing. On the testing day, the animals, at least six per treatment group, were administered the compounds and controls at a volume dosage of 5 ml/kg. Fifteen minutes later, the mechanical stimulus was applied and the force, measured in grams, causing a withdrawal response for each of the ipsilateral and contralateral hind paws was evaluated.
Results are expressed as mean±SEM for each treatment group and the differences among those groups are analyzed by analysis of variance (ANOVA) followed by post-hoc Tukey's test. A value of p<0.05 is considered to be statistically significant. Thereafter the difference in the force to be applied to the injured paw as compared to the normal paw was calculated. Δforce, expressed in grams, was measured at baseline and 1 and 4.5 hours after treatment.

[5] = 10 mg/kg i.p., 3 hours, mechanical stimulus, read-out: Percent Inhibition of Inflammatory Pain Responses, ΔForce
[6] = 10 mg/kg i.p., 3 hours, thermal stimulus, read-out: Percent Inhibition of Inflammatory Pain Responses, ΔLT

## CCCCC(C)(C)c1cc(OC(=O)C=CC(=O)O)c2c3c(oc2c1)CCCC3 [Compound C6M-8, But-2-enedioic acid mono-[3-(1,1-dimethylpentyl)-6,7,8,9-tetrahydro-dibenzofuran-1-yl]ester]
Human CB1 Receptor
  EC50: 0.25 nM
Human CB1 Receptor; upper plateau of curve
  Emax: -25%
Human CB2 Receptor
  EC50: > 10000 nM
IL-1β
  Percent inhibition of gene expression, IL-1β: 51%
iNOS
  Percent inhibition of gene expression, iNOS: 66%
MCP-1
  Percent inhibition of gene expression, MCP-1: 85%
[1]; [5]
  inhibition in vivo at 10 mg/kg: 20%
[1]; [6]
  inhibition in vivo at 10 mg/kg: 45%

## O=C(O)c1cc(/N=N/c2ccc(S(=O)(=O)Nc3ccccn3)cc2)ccc1O [sulfasalazine, reference compound]
[2]; 10 mg/kg
  regained normal weight on: 6 days
  transient loss in body weight: 10%
  mortality: 0%

## CCCCC(C)(C)c1cc(OCC(=O)O)c2c(c1)OC1CCCCC21 (stereo not drawn) [Compound C6S-9, [3-(1,1-Dimethylpentyl)-5a,6,7,8,9,9a-hexahydro-dibenzofuran-1-yloxy]-acetic acid]
[1]; [5]
  inhibition in vivo at 10 mg/kg: 14%
[1]; [6]
  inhibition in vivo at 10 mg/kg: 53%
[2]; 20 mg/kg i.p. daily
  transient loss in body weight: behaved as the sulfasalazin treated group
  mortality: 0%

## CCCCC(C)(C)c1cc(O)c2c(c1)OC1CC(C)(C)CCC21 (stereo not drawn) [Compound C6S-6, 3-(1,1-dimethylpentyl)-7,7-dimethyl-5a,6,7,8,9,9a-hexahydro-dibenzofuran-1-ol]
COX-2
  Percent inhibition of gene expression, COX-2: NO (NO indicates that the compound tested did not significantly affect the transcription of the gene assessed and that its activity is comparable to vehicle, within ±20% from this control)
IL-1β
  Percent inhibition of gene expression, IL-1β: 37%
iNOS
  Percent inhibition of gene expression, iNOS: NO (NO indicates that the compound tested did not significantly affect the transcription of the gene assessed and that its activity is comparable to vehicle, within ±20% from this control)
MCP-1
  Percent inhibition of gene expression, MCP-1: NO (NO indicates that the compound tested did not significantly affect the transcription of the gene assessed and that its activity is comparable to vehicle, within ±20% from this control)
[3]; Mus musculus, iv, read-out: Percent Inhibition of Visceral Pain Writhing Responses
  inhibition in vivo at 2 mg/kg: 38%

## CCCCCCC(C)(C)c1cc(OCC(=O)O)c2c(c1)OC1C(O)CCCCC21 (stereo not drawn) [Compound C7S-10, [2-(1,1-dimethylheptyl)-9-hydroxy-5,6,7,8,9,9a-hexahydro-4bH-10-oxa-benzo[α]azulen-4-yloxy]-acetic acid]
[3]
  Percent Inhibition of Visceral Pain Writhing Responses: 53%
[1]; 10 mg/kg i.p., 3 hours after carrageenan, reduction in paw swelling
  Percent Inhibition of Inflammatory Pain Responses, Edema: 41%
[1]; 10 mg/kg i.p., 3 hours, mechanical stimulus
  Percent Inhibition of Inflammatory Pain Responses, ΔForce: 25%
[1]; 10 mg/kg i.p., 3 hours, thermal stimulus
  Percent Inhibition of Inflammatory Pain Responses, ΔLT: 61%
[1]; 30 mg/kg p.o.
  inhibition of paw swelling: 60%
[4]; last time point (4.5 hours)
  pain response (Δforce): totally abrogated the pain response
[4]; one hour after administration
  reduction of pain response (Δforce): 70-80%
